Test results from patent publication US8097656B2, “Nitrogenated trans-stilbene analogs, method for the obtention and medical applications thereof” (Dominion Pharmakine S.L, priority 2005, dated 2012).

Tests used:
human HSC = test: Migration of human HSCs treated with MC-MA375 (modified Boyden chamber); assay type: cell-based; conditions: for Increase in migration of HSC induced by MC-A375 (in words): 12.5 μM 30 min prior to MC-A375; for Migration of human HSC's treated with MC-MA375 (No. cells migrated per field): 12.5 μM, 30 min before MC-MA375, 4 h, control 10.0 ± 4, treatment alone 91.5 ± 19
From the text: isolation of primary human cultures of hepatic sinusoidal endothelial (HSE) hepatic stellate cells (HSCs). The primary cultures of human HSE and HSC cells were obtained by non-tumoral hepatic tissue serial profusion with collagenase and pronase solutions, followed by Nycodenz gradient and seeded on 24-well plates (0.5×10^4 cells/cm^2) in DMEM. supplemented with 10% FBS.
Human HSC and HSE cell migration tests (see Table 3). Primary cultured hepatic endothelial cells (25×10^5) or hepatic stellate cells (2×10^4) were seeded in the upper compartment of modified Boyden chambers equipped with a polycarbonate filter of an 8 μm pore size. Some cells were incubated in the presence or absence of 12.5 μM of azaresveratrol, 30 minutes prior to adding conditioned tumor medium. Twenty-four (24) hours later (in the case of the endothelial cells) or 4 hours later (in the case of hepatic star cells) the number of cells having passed through the membrane was determined. The cells were fixed, were stained with hematoxylin eosine and were counted under the microscope (20×) in 5 fields per well.

MB16 cells [1] = test: Adhesion of IL-18-treated MB16 cells to HSE cell monolayer; assay type: cell-based, murine; conditions: for Adhesion of MB16 cells treated with IL-18 to HSE cells (% adhered cells): 2.5 μM for 30 min prior to IL-18, control 24.4 ± 4, IL-18 alone 54 ± 6.0; for Increase of the percentage of adhesion of tumor cells to the HSE in response to IL-18 (in words): 2.5 μM for 30 minutes prior to IL-18
From the text: Isolation of primary murine cultures of hepatic sinusoidal endothelial (HSE) cells. The hepatic sinusoidal cells were isolated from C57BL/6J mice (males, aged 6-8 weeks) supplied by IFFA Credo (L'Arbreole, France), followed by a purification and identification of the HSE cells following the protocol described by Vidal-Vanaclocha et al. (1993) [Vidal-Vanaclocha, F., Rocha, M., Asumendi, A. & Barbera-Guillem, E. Isolation and enrichment of two sublobular compartment-specific endothelial cell subpopulations from liver sinusoids. Hepatology, 1993, 18, 328-339]. Stable primary cultures of HSE cells were obtained after seeding the cells on a type I collagen substrate (Sigma Chemicals Co, St Louis, Mo.), and the cultures were maintained in DMEM-HCO^3−, penicillin (100 U/ml), streptomycin (100 μg/ml), supplemented with 10% fetal bovine serum at 37° C. with 5% CO2 in atmosphere at 98% humidity.
MB16 cell adhesion to the monolayer of HSE cells in culture. The endothelial cells were isolated 24 hours prior to the adhesion test and were seeded on 24-well plate, maintaining them a minimum of 4 hours in serum-free medium before incubating them with DMEM in the presence or not of MC-MB16 for 8 hours. The synthesized compounds (JE2:2 see FIG. 6; JEM2:2-01 and JEM2:1-02 see FIG. 8A; YEF02, YEF03, YEF07, YEF05B, YEF07B and YEF05H see FIG. 10) were added to a 2.5 μM concentration prior to the MC-MB16. On the other hand, the MB16 cells were marked with 40 μg/ml from the fluorescent probe BCECF-AM (carboxyfluorescein, 2′,7′-bis-(2-carboxy-ethyl)-5-(6)carboxyfluorescein aminoxymethyl ester) supplied by Molecular Probes Inc. (Oregon, USA). Afterward, a washing process was performed with DMEM-HCO3−—to remove the excess fluorochromium, the number of viable cells being calculated by means of the trypan blue exclusion test and resuspended to a concentration of 2×10^5 cells/ml. Lastly, 1 ml of the MB16 cell suspension was added to each well on the primary HSE cell culture plate. The co-culture plates were incubator-incubated at 37° C. for 8 minutes. The percentage of cellular adhesion was calculated by means of the a fluorescence measurement system described by Vidal-Vanaclocha et al. (1994) [Vidal-Vanaclocha, F., Amézaga, C., Asumendi, A., Kaplanski, G. & Dinarello, C. A. Interleukin-1 receptor blockade reduces the number and size of murine B16 melanoma hepatic metastases. Cancer Research, 1994, 54, 2667-2672]. In the experiments with IL-18, the MB16 cells were incubated with 10 ng/ml of IL-18 for 4 hours prior to being marked with BCECF-AM and were adhered to the HSE cell plate. The results in the figures are given as values related to the adhesion percentages of the untreated HSE cells.

MB16 cells [2] = test: In vitro proliferation of MB16 cells in response to murine HSC soluble factors; assay type: cell-based; conditions: for Increase in proliferation of B16 cells by MC-CEH (in words): 2.5 μM for 30 minutes before MC-CEH, 48 hours; for Proliferation of MB16 cells in response to murine HSC soluble factors (No. cells per well): 2.5 μM, 30 min before HSC-conditioned media, 48 h, control 16300 ± 300, treatment alone 21660 ± 500
Experimental: Culture of B16 (MB16) and A375 (MA375) melanoma cells. The MB 16 (B16F10 subline) murine tumor cells were cultured at 37° C., with 5% CO2 atmosphere in Dulbecco's modified Eagle's medium (DMEM)-HCO3 penicillin (100 U/ml), streptomycin (100 μg/ml), supplemented with 5% fetal bovine serum and adjusted to pH 7.4. The cells were maintained and subcultured according to the method described by Vidal-Vanaclocha et al. (1994) [Vidal-Vanaclocha, F., Amézaga, C., Asumendi, A., Kaplanski, G. & Dinarello, C. A. Interleukin-1 receptor blockade reduces the number and size of murine B16 melanoma hepatic metastases. Cancer Research, 1994, 54, 2667-2672]. The conditioned media were obtained from subconfluyent cultures maintained in absence of FBS for 24 hours.
In vitro Melanoma cell proliferation test. The MB16 or MA375 cells are seeded (2500 cells/well/200 μl) in DMEM medium (Dulbecco's modified Eagle's medium) with 10% fetal bovine serum (FBS). Once adhered, they were washed to remove the FBS and fresh medium was added in the presence or absence of 2.5 μM of the compounds to be tested. In the experiments with MA375, the compound azaresveratrol (see Table 4) was used, and in the experiments with MB16 cells, the compounds azaresveratrol, JE1:2, JE2:1 or JE2:2 (see FIG. 3) were used. Thirty (30) minutes later, 10 ng/ml of IL-18 or HSC-conditioned media (murines in the case of B16 and human ones in the case of A375) were added to some wells, and the plates were incubated for 48 hours at 37° C. with 5% CO2 Upon completion of the incubation period, the cells were fixed with […] for 1 hours, were washed and were allowed to dry in the incubator at 50° C. for 30 minutes. In following, 100 μl/well of sulforhodamine 101 (0.4% p/v) was added and they were incubated at room temperature in the dark for 30 minutes. After washing, 200 μl/well of Tris base 10 mM pH 10.5 was added and the fluorescence was measured by means of a 530 nm, 620 nm emission excitation filter plate fluorescence reader. The number of cells was calculated by extrapolating said fluorescence data on a standard straight line previously obtained based on the fluorescence emitted in an increasing number of cells.

Oc1ccc(/N=C/c2cc(O)cc(O)c2)cc1 [azaresveratrol, 5-((E)-(4-Hydroxyphenylimino)methyl)benzene-1,3-diol]
Increase in migration of HSC induced by MC-A375 (in words) (human HSC): abolished
Migration of human HSC's treated with MC-MA375 (No. cells migrated per field) (human HSC): 6.0 ± 1.3 No. cells migrated per field
Adhesion of MB16 cells treated with IL-18 to HSE cells (% adhered cells) (MB16 cells [1]): 31 ± 4.0 % adhered cells
Increase of the percentage of adhesion of tumor cells to the HSE in response to IL-18 (in words) (MB16 cells [1]): significantly (P<0.01) inhibited
Increase in proliferation of B16 cells by MC-CEH (in words) (MB16 cells [2]): prevented
Proliferation of MB16 cells in response to murine HSC soluble factors (No. cells per well) (MB16 cells [2]): 16750 ± 135 No. cells per well

Oc1ccc(C=Cc2cc(O)cc(O)c2)cc1 [resveratrol, reference compound]
Increase in migration of HSC induced by MC-A375 (in words) (human HSC): abolished
Migration of human HSC's treated with MC-MA375 (No. cells migrated per field) (human HSC): 6.5 ± 1.4 No. cells migrated per field
Adhesion of MB16 cells treated with IL-18 to HSE cells (% adhered cells) (MB16 cells [1]): 30 ± 4.0 % adhered cells
Increase of the percentage of adhesion of tumor cells to the HSE in response to IL-18 (in words) (MB16 cells [1]): significantly (P<0.01) inhibited
Increase in proliferation of B16 cells by MC-CEH (in words) (MB16 cells [2]): prevented
Proliferation of MB16 cells in response to murine HSC soluble factors (No. cells per well) (MB16 cells [2]): 16800 ± 250 No. cells per well
